Data reported in patent publication US9895369B2, “Stable and soluble formulations of receptor tyrosine kinase inhibitors, and methods of preparation thereof” (ForSight Vision4, Inc., priority 2014, dated 2018).

What was measured:
[1] = pH comparison of pazopanib/CAPTISOL solutions with similar composition; type: physicochemical; conditions: about 22.4 mg pazopanib salt + about 157 mg CAPTISOL (1.5x molar ratio to drug) in 1 mL water
Source text: From the results of the pH and the chloride content analysis it is concluded that the pharmaceutical ingredient from sample-1 contains 2-HCl per each pazopanib molecule, compared to active from sample-2, which contains only 1 HCl/per drug molecule.

[2] = Precipitation during ambient (room temperature) storage of the formulation; type: physicochemical; conditions: high drug concentration; crystallized out during storage and during drug release

Compound | pH, measured [1] | Stability of high concentration formulations (on shelf and upon dilution) [2]
Cc1ccc(Nc2nccc(N(C)c3ccc4c(C)n(C)nc4c3)n2)cc1S(N)(=O)=O [Pazopanib-Sample 1, 5-[[4-[(2,3-Dimethyl-2H-indazol-6-yl)methylamino]-2-pyrimidinyl]amino]-2-methylbenzolsulfonamide] | 1.68 | 
Cc1ccc(Nc2nccc(N(C)c3ccc4c(C)n(C)nc4c3)n2)cc1S(N)(=O)=O [Pazopanib-Sample 2 (1HCl), 5-[[4-[(2,3-Dimethyl-2H-indazol-6-yl)methylamino]-2-pyrimidinyl]amino]-2-methylbenzolsulfonamide] | 3.36 | very unstable
Cc1ccc(Nc2nccc(N(C)c3ccc4c(C)n(C)nc4c3)n2)cc1S(N)(=O)=O [Pazopanib-Sample 2-lyophilized-TFE (1HCl)] [5-[[4-[(2,3-Dimethyl-2H-indazol-6-yl)methylamino]-2-pyrimidinyl]amino]-2-methylbenzolsulfonamide] | 3.34 | 
